Patent US20150197497A1, “SELECTIVE INHIBITORS OF HISTONE DEACETYLASE ISOFORM 6 AND METHODS THEREOF” (DANA-FARBER CANCER INSTITUTE, INC., priority 2011, published 2015)

Legend:
HDAC3 = target: T1, HDAC3 (Homo sapiens, UniProt O15379); assay: In vitro HDAC enzyme inhibition assay, HDAC3; type: biochemical; conditions: for HDAC3/HDAC6 in vitro selectivity: ratio of IC50 for HDAC3 relative to that of HDAC6; for IC50: recombinant full-length HDAC3, substrate MAZ1600 9 μM
T1 construct: Recombinant, full-length HDAC protein (BPS Biosciences) was incubated with fluorophore conjugated substrate; purchased BPS Biosciences
T1 sequence (O15379 whole entry): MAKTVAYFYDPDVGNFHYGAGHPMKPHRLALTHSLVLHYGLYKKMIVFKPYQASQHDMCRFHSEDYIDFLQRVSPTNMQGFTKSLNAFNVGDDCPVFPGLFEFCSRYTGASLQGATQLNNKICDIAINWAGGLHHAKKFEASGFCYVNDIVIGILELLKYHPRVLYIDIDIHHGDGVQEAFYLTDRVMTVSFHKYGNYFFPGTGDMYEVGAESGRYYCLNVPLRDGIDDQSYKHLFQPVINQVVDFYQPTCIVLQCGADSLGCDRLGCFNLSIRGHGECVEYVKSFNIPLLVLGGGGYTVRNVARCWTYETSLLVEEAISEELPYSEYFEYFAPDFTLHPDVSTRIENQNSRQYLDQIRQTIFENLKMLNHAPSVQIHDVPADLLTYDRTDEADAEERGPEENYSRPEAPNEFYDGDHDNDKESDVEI
T1 sequence (Q9Y618 395-489 partner limits assumed): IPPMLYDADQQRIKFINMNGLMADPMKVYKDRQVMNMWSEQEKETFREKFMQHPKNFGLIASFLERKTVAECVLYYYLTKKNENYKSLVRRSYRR
Experimental: (§1) In vitro Histone Deacetylase enzyme assays were performed using Class I (isoforms: HDAC1, HDAC2, HDAC3 and HDAC8), class IIa (isoforms: HDAC4, HDAC5, HDAC7 and HDAC9) and class IIb (isoform HDAC6).
(§2) HDAC activities were determined in vitro with an optimized homogenous assay performed in a 384-well plate. Recombinant, full-length HDAC protein (BPS Biosciences) was incubated with fluorophore conjugated substrate, MAZ1600 and MAZ1675, at Km=[S]. […] Reactions were performed in assay buffer (50 mM HEPES, 100 mM KCl, 0.001% Tween-20, 0.05% BSA, 200 μM tris(2-carboxyethyl)phosphine (TCEP), pH 7.4) and followed for fluorogenic release of 7-amino-4-methylcoumarin from substrate upon deacetylase and trypsin enzymatic activity. Fluorescence measurements were obtained every five minutes using a multilabel plate reader and plate-stacker (Envision; Perkin-Elmer). Each plate was analyzed by plate repeat, and the first derivative within the linear range was imported into analytical software (Spotfire DecisionSite and GraphPad Prism). Replicate experimental data from incubations with inhibitor were normalized to controls.

acetylated histones = assay: High-content image analysis of induction of acetylated histones in A549 cells; conditions: Homo sapiens, A549, 8 h, read-out: EC50 for half-maximal induction of acetylated histones (AcHistone)
HDAC2 = target: T2, HDAC2 (Homo sapiens, UniProt Q92769); assay: In vitro HDAC enzyme inhibition assay, HDAC2; type: biochemical; conditions: for HDAC2/HDAC6 in vitro selectivity: ratio of IC50 for HDAC2 relative to that of HDAC6; for IC50: recombinant full-length HDAC2, substrate MAZ1600 22 μM
T2 construct: Recombinant, full-length HDAC protein (BPS Biosciences) was incubated with fluorophore conjugated substrate; purchased BPS Biosciences
T2 sequence (Q92769 whole entry): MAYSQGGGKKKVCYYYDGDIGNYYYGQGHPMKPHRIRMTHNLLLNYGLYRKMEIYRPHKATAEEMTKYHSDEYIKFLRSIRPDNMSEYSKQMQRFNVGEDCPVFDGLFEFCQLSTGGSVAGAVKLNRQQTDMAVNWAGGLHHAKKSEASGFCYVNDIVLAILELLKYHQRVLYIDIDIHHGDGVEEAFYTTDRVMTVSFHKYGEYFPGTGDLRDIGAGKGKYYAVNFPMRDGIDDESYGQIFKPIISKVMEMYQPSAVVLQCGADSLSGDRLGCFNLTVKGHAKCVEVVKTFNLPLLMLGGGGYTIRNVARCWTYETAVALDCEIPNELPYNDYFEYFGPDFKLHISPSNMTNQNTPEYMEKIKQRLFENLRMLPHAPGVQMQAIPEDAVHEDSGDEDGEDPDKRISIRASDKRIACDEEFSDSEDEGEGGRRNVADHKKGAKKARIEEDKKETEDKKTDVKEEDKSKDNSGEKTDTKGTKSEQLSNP
Experimental: as §1, §2

HDAC8 = target: T3, HDAC8 (Homo sapiens, UniProt Q9BY41); assay: In vitro HDAC enzyme inhibition assay, HDAC8; type: biochemical; conditions: for HDAC8/HDAC6 in vitro selectivity: ratio of IC50 for HDAC8 relative to that of HDAC6; for IC50: recombinant full-length HDAC8, substrate MAZ1675 282 μM; for selectivity toward HDAC6 compared to HDAC8 (in words): tested in vitro
T3 construct: Recombinant, full-length HDAC protein (BPS Biosciences) was incubated with fluorophore conjugated substrate; purchased BPS Biosciences
T3 sequence (Q9BY41 1-377): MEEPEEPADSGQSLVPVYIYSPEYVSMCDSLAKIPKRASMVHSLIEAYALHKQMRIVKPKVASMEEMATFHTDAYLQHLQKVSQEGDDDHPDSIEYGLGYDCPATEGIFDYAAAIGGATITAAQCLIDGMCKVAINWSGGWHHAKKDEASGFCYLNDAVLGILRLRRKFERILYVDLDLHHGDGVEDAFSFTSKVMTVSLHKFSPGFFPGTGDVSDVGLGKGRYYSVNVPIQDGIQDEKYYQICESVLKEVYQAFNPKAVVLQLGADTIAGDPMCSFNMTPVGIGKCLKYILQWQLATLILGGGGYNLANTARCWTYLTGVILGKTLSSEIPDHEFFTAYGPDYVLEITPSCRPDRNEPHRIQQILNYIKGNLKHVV
Experimental: as §1, §2

HDAC9 = target: T4, HDAC9 (Homo sapiens, UniProt Q9UKV0); assay: In vitro HDAC enzyme inhibition assay, HDAC9; type: biochemical; conditions: for HDAC9/HDAC6 in vitro selectivity: ratio of IC50 for HDAC9 relative to that of HDAC6; for IC50: recombinant full-length HDAC9, substrate MAZ1675 26 μM; for selectivity toward HDAC6 compared to HDAC9 (in words): tested in vitro
T4 construct: Recombinant, full-length HDAC protein (BPS Biosciences) was incubated with fluorophore conjugated substrate; purchased BPS Biosciences
T4 sequence (Q9UKV0 whole entry): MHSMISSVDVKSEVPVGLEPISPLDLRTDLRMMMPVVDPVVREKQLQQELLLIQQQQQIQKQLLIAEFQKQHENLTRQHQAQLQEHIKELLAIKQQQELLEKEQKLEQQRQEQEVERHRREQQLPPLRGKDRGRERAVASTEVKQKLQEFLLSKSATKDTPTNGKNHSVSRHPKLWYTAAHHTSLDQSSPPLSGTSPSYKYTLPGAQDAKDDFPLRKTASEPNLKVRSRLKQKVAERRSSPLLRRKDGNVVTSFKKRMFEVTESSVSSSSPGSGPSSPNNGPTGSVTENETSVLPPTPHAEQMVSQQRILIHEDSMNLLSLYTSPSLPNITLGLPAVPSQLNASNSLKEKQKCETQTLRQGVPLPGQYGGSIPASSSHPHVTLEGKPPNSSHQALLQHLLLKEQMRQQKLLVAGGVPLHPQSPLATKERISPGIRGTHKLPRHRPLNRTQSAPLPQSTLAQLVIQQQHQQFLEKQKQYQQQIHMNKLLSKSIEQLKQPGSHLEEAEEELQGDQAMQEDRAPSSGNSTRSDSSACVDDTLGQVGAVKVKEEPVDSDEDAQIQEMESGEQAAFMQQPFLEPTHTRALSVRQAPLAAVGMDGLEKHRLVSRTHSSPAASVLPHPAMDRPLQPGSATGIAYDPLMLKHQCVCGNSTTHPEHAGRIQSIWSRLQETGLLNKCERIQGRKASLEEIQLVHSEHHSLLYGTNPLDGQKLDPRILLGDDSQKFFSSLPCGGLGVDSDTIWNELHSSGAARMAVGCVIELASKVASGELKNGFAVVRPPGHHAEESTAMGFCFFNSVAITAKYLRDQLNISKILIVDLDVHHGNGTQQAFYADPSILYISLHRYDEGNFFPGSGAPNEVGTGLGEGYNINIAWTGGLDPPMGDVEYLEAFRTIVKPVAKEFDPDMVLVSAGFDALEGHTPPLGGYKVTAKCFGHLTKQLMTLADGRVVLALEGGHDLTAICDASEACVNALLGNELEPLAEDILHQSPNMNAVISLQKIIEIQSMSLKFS
Experimental: as §1, §2

HDAC5 = target: T5, HDAC5 (Homo sapiens, UniProt Q9UQL6); assay: In vitro HDAC enzyme inhibition assay, HDAC5; type: biochemical; conditions: for HDAC5/HDAC6 in vitro selectivity: ratio of IC50 for HDAC5 relative to that of HDAC6; for IC50: recombinant full-length HDAC5, substrate MAZ1675 40 μM; for selectivity toward HDAC6 compared to HDAC5 (in words): tested in vitro
T5 construct: Recombinant, full-length HDAC protein (BPS Biosciences) was incubated with fluorophore conjugated substrate; purchased BPS Biosciences
T5 sequence (Q9UQL6 whole entry): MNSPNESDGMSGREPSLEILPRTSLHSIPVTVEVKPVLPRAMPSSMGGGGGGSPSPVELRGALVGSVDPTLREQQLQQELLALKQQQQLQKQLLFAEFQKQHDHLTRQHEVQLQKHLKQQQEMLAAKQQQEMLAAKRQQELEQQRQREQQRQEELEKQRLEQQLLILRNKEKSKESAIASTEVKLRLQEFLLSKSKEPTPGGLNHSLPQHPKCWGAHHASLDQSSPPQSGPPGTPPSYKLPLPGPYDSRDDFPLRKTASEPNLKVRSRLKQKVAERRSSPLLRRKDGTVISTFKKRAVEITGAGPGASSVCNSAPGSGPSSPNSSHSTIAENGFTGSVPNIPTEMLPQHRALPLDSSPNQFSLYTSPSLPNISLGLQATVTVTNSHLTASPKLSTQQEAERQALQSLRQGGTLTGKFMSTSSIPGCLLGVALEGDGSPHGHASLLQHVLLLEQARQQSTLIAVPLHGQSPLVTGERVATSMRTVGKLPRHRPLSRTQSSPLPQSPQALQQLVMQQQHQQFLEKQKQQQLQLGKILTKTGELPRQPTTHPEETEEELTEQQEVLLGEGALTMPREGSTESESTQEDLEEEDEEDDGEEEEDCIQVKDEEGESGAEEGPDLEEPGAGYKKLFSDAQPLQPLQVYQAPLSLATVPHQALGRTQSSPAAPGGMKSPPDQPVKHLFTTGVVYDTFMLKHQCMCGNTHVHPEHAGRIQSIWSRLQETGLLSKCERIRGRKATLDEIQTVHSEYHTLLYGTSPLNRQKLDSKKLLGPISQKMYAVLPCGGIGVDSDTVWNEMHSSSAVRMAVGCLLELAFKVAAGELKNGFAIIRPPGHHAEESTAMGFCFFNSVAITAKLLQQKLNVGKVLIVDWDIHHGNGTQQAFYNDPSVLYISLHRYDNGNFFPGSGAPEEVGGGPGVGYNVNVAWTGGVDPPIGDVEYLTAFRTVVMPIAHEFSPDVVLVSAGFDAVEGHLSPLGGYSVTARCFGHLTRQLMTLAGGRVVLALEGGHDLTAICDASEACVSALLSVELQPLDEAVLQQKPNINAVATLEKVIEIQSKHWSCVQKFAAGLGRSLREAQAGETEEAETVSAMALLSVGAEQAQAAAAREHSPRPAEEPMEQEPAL
Experimental: as §1, §2

HDAC6 = target: T6, HDAC6 (Homo sapiens, UniProt Q9UBN7); assay: In vitro HDAC enzyme inhibition assay, HDAC6; type: biochemical; conditions: recombinant full-length HDAC6, substrate MAZ1600 9 μM
T6 construct: Recombinant, full-length HDAC protein (BPS Biosciences) was incubated with fluorophore conjugated substrate; purchased BPS Biosciences
T6 sequence (Q9UBN7 1-1215): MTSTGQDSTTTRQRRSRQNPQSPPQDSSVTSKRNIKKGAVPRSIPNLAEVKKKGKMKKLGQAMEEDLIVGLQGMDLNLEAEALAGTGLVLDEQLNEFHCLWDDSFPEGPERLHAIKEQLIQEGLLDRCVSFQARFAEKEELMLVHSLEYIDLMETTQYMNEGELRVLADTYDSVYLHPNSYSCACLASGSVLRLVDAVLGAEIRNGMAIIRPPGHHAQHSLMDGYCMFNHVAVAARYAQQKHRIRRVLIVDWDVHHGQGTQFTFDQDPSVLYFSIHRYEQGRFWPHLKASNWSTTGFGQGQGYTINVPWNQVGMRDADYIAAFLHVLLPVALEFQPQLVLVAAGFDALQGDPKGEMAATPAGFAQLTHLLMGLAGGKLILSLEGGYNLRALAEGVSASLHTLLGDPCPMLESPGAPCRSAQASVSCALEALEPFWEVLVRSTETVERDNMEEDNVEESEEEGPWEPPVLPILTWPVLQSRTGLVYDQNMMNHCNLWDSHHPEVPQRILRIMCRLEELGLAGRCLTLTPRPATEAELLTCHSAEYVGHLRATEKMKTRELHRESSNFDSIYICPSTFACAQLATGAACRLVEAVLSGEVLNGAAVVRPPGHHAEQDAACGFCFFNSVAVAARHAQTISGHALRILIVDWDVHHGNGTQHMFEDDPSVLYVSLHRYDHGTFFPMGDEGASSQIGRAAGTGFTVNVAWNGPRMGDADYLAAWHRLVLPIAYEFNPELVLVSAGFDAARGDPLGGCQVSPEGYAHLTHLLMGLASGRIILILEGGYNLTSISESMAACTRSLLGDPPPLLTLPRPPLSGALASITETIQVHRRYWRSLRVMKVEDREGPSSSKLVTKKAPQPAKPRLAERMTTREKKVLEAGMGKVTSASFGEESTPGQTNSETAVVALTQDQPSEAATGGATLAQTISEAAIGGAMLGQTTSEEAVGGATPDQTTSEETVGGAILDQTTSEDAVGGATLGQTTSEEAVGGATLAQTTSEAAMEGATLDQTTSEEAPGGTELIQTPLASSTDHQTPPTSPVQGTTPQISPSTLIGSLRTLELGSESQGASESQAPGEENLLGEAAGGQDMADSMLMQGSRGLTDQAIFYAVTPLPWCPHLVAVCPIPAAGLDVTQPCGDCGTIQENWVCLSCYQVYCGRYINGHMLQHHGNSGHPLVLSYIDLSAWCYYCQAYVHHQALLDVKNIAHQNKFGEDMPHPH
Experimental: as §1, §2

HDAC4 = target: T7, HDAC4 (Homo sapiens, UniProt P56524); assay: In vitro HDAC enzyme inhibition assay, HDAC4; type: biochemical; conditions: for HDAC4/HDAC6 in vitro selectivity: ratio of IC50 for HDAC4 relative to that of HDAC6; for IC50: recombinant full-length HDAC4, substrate MAZ1675 10 μM; for selectivity toward HDAC6 compared to HDAC4 (in words): tested in vitro
T7 construct: Recombinant, full-length HDAC protein (BPS Biosciences) was incubated with fluorophore conjugated substrate; purchased BPS Biosciences
T7 sequence (P56524 whole entry): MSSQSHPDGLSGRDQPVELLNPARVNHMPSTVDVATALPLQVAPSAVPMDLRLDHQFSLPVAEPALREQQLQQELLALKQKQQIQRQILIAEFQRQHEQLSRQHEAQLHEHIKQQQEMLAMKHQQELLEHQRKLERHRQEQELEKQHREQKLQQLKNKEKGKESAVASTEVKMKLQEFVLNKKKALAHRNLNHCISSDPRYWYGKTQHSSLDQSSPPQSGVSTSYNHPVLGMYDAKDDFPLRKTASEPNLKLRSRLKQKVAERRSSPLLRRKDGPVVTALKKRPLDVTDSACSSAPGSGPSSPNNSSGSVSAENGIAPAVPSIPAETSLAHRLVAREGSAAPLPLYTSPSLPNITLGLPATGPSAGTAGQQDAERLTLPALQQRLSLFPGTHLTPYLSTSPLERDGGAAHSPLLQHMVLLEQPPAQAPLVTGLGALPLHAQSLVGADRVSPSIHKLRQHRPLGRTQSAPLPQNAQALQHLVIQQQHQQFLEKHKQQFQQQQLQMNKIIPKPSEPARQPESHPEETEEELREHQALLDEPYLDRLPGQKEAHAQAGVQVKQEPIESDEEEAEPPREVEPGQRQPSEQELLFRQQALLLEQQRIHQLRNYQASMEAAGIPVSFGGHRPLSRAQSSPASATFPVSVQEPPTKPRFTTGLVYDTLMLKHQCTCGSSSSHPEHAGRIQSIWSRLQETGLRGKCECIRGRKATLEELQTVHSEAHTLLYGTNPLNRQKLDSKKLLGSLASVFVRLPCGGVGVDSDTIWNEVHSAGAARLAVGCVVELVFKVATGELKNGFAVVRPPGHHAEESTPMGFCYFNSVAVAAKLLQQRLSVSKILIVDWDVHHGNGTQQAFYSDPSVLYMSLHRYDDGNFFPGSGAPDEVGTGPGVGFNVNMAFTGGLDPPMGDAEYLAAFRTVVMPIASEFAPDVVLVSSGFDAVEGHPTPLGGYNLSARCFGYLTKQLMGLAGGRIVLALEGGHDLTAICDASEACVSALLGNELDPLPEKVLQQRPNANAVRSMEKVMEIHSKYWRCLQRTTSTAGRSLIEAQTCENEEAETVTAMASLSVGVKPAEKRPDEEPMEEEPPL
Experimental: as §1, §2

Compound	HDAC3/HDAC6 in vitro selectivity (HDAC3)	IC50 (HDAC3)	EC50 (acetylated histones)	HDAC2/HDAC6 in vitro selectivity (HDAC2)	IC50 (HDAC2)	HDAC8/HDAC6 in vitro selectivity (HDAC8)	IC50 (HDAC8)	HDAC9/HDAC6 in vitro selectivity (HDAC9)	IC50 (HDAC9)	selectivity toward HDAC6 compared to HDAC9 (in words) (HDAC9)	HDAC5/HDAC6 in vitro selectivity (HDAC5)	IC50 (HDAC5)	IC50 (HDAC6)	HDAC4/HDAC6 in vitro selectivity (HDAC4)	IC50 (HDAC4)	selectivity toward HDAC6 compared to HDAC4 (in words) (HDAC4)	selectivity toward HDAC6 compared to HDAC8 (in words) (HDAC8)	selectivity toward HDAC6 compared to HDAC5 (in words) (HDAC5)
O=C(NO)c1ccc(Cn2cnc3cc(F)ccc32)cc1 [A9, 4-((5-fluoro-1H-benzo[d]imidazol-1-yl)methyl)-N-hydroxybenzamide]	9140	606 nM	62.7 nM	3132	208 nM	12348	819 nM	32978	2190 nM	exceptionally high selectivity (Inhibitors with in vitro selectivity values for HDAC6 of at least 30,000 are considered to have exceptionally high selectivity toward HDAC6)	15350	1020 nM	0.0663 nM	28751	1910 nM			
O=C(NO)c1ccc(Cn2cnc3cc(Cl)ccc32)cc1 [A10, 4-((5-chloro-1H-benzo[d]imidazol-1-yl)methyl)-N-hydroxybenzamide]	3046	210 nM	900 nM	1364	94.1 nM	7524	519 nM	17278	1190 nM		9686	668 nM	0.069 nM	21516	1480 nM			
O=C(NO)c1ccc(Cn2cnc3cc(Br)ccc32)cc1 [A11, 4-((5-bromo-1H-benzo[d]imidazol-1-yl)methyl)-N-hydroxybenzamide]	3936	65.6 nM	1970 nM	1601	26.7 nM	18285	305 nM	61100	1020 nM	exceptionally high selectivity (Inhibitors with in vitro selectivity values for HDAC6 of at least 30,000 are considered to have exceptionally high selectivity toward HDAC6)	25649	427 nM	0.0167 nM	93190	1550 nM	exceptionally high selectivity (Inhibitors with in vitro selectivity values for HDAC6 of at least 30,000 are considered to have exceptionally high selectivity toward HDAC6)		
COc1ccc2c(c1)ncn2Cc1ccc(C(=O)NO)cc1 [A12, N-hydroxy-4-((5-methoxy-1H-benzo[d]imidazol-1-yl)methyl)benzamide]	2293	497 nM	105 nM	1125	244 nM	6543	1420 nM	10933	2370 nM		7819	1700 nM	0.217 nM	12423	2690 nM			
O=C(NO)c1ccc(Cn2c(=O)[nH]c3ccccc32)cc1 [B1, N-hydroxy-4-((2-oxo-2,3-dihydro-1H-benzo[d]imidazol-1-yl)methyl)benzamide]	14575	212 nM	263 nM	6974	101 nM	46328	673 nM	155186	2250 nM	exceptionally high selectivity (Inhibitors with in vitro selectivity values for HDAC6 of at least 30,000 are considered to have exceptionally high selectivity toward HDAC6)	117927	1710 nM	0.0145 nM	153386	2230 nM	exceptionally high selectivity (Inhibitors with in vitro selectivity values for HDAC6 of at least 30,000 are considered to have exceptionally high selectivity toward HDAC6)	exceptionally high selectivity (Inhibitors with in vitro selectivity values for HDAC6 of at least 30,000 are considered to have exceptionally high selectivity toward HDAC6)	exceptionally high selectivity (Inhibitors with in vitro selectivity values for HDAC6 of at least 30,000 are considered to have exceptionally high selectivity toward HDAC6)
Cc1ccc2c(c1)[nH]c(=O)n2Cc1ccc(C(=O)NO)cc1 [B2, N-hydroxy-4-((5-methyl-2-oxo-2,3-dihydro-1H-benzo[d]imidazol-1-yl)methyl)benzamide]	6310	18.1 nM	229 nM	4997	14.3 nM	120780	346 nM	319552	915 nM	exceptionally high selectivity (Inhibitors with in vitro selectivity values for HDAC6 of at least 30,000 are considered to have exceptionally high selectivity toward HDAC6)	229909	658 nM	0.00286 nM	412836	1180 nM	exceptionally high selectivity (Inhibitors with in vitro selectivity values for HDAC6 of at least 30,000 are considered to have exceptionally high selectivity toward HDAC6)	exceptionally high selectivity (Inhibitors with in vitro selectivity values for HDAC6 of at least 30,000 are considered to have exceptionally high selectivity toward HDAC6)	exceptionally high selectivity (Inhibitors with in vitro selectivity values for HDAC6 of at least 30,000 are considered to have exceptionally high selectivity toward HDAC6)
